Test results: PMC4931907 (eLife, 2016)

Columns and labels:
GCN5 = biological target: T1, GCN5 (Homo sapiens, UniProt Q92830); test: In vitro HAT assay with recombinant GCN5, histones and 14C acetyl-CoA; type: biochemical
T1 construct: purchased Enzo Life Sciences
Experimental: To determine whether salicylate inhibits p300 and other acetyltransferases, we used in vitro acetylation assays with purified histones and a recombinant p300 catalytic domain.
Figure 1. Salicylate inhibits CBP/p300 in vitro. (A) Recombinant p300, CBP, GCN5, or PCAF and histones were incubated with ^14C-labeled acetyl-CoA with or without sodium salicylate, separated by SDS-PAGE, analyzed by autoradiography, and quantified with Image J software. Acetylation levels are relative to those in untreated controls. (B) Thermal stability assay for sodium salicylate binding to the p300 HAT domain. Tm, melting temperature. […] Histone acetylation was measured with several concentrations of acetyl-CoA (C) or histone (D) in the presence or absence of sodium salicylate. […] Acetylation of an H4(3–14) peptide was monitored using direct microfluidic mobility shift analysis as previously described ([Montgomery et al., 2014]; [Fanslau et al., 2010]). […]
Recombinant HAT ([…]), either p300, CBP, PCAF, or GCN5 (Enzo Life Sciences), and 10 µg of histones (Sigma) were incubated with sodium salicylate (Sigma) in reaction buffer (50 mM HEPES, pH 8.0, 10% glycerol, 1 mM) at 30°C for 30 min and then with 0.1 mCi of ^14C acetyl-CoA at 30°C for 60 min. Reactions were stopped by adding 6x sample buffer and analyzed by SDS-PAGE. […]

[1] = test system: AE9a-driven AML cell line; test: Growth and apoptosis of AE9a cells (trypan blue, annexin V/7AAD); type: cell-based, mouse; conditions: for Apoptosis, annexin V/7AAD double staining: 24 hr
Text: (§1) Previously, we reported that the leukemogenicity of the AML1-ETO fusion protein, generated by a t(8;21) translocation in acute myelogenous leukemia, is regulated by p300-mediated acetylation of lysine 43 of the fusion protein ([Wang et al., 2011]).
(§2) Figure 4. […] (B) Kasumi-1 and AE9a cells treated or not with salicylate were counted by trypan-blue exclusion under light microscopy. […] The percentage of sub-G1 cells is shown. […] Cells were counted by trypan-blue exclusion under light microscopy. […] DOI: http://dx.doi.org/10.7554/eLife.11156.011
HEK293T cells (ATCC) were maintained in DMEM supplemented with 10% FCS. The viability of Kasumi-1 cells and AE9a mouse leukemia cells was assessed in triplicate by trypan blue exclusion. The Kasumi cell line was isolated and characterized by one of the coauthors (S. Nimer) ([Becker et al., 2008]). All cell lines were tested annually for mycoplasma contamination. Only negative mycoplasma cultures were used during the conduct of these experiments.
Apoptosis was analyzed with an Annexin V-APC/7AAD Apoptosis kit (Becton-Dickinson) according to manufacturer’s instructions. To assess the distribution of nuclear DNA content in the cell-cycle analysis, cells were collected, washed in PBS, fixed overnight in 75% ethanol at –20°C, treated with 1% RNase A for at least 15 min at 37°C, and stained with […] propidium iodide. To monitor CD34 expression, the cells were stained with an allophycocyanin-conjugated anti-CD34 antibody (Becton Dickinson). To monitor CD11b expression, the cells were stained with a phycoerythrin-conjugated anti-CD11b antibody (Beckman-Coulter). To monitor C-kit and Mac-1 expression, the cells were stained with allophycocyanin-conjugated anti-C-kit and phycoerythrin-conjugated anti-Mac-1 antibodies (Becton-Dickinson). Cells were sorted with a Becton-Dickinson FACSCalibur, and the data were analyzed with FlowJo software.

AML1-ETO fusion protein = test: AML1-ETO K24/K43 acetylation in Kasumi-1 cells (immunoprecipitation, Western blot); type: cell-based, human; conditions: Kasumi-1, 24 hr; salicylate 4 or 8 mM, diflunisal 100 or 200 μM
Text: as §1, §2
AML1-ETO protein in the lysate was immunoprecipitated with an anti-ETO antibody (Santa Cruz Biotechnology). Antibodies against AML1 and acetylated AML1-ETO K24/K43 (generated in the Nimer lab) were used for Western blotting.

T1 sequence (Q92830 whole entry, species assumed): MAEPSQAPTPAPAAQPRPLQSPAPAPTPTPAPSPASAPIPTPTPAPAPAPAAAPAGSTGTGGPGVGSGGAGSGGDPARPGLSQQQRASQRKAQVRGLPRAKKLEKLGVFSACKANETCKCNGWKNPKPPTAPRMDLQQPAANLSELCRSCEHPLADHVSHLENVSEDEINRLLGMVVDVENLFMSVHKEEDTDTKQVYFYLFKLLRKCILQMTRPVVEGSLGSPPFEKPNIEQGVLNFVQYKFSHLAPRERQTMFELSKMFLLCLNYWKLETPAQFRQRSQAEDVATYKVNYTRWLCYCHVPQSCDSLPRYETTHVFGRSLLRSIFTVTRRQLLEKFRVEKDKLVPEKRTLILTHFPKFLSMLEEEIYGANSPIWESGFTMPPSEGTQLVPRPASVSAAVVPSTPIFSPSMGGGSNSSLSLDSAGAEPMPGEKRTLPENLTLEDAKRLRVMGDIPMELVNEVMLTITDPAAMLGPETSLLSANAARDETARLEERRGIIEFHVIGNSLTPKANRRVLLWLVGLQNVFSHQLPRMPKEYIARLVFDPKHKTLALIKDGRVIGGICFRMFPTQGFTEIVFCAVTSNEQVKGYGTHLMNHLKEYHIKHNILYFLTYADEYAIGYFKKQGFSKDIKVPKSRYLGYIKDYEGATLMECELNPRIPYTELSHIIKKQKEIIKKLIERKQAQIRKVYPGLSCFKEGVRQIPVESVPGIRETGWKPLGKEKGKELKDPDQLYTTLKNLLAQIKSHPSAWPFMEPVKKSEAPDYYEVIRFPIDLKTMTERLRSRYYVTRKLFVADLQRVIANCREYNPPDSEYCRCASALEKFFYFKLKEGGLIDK

SMILES | Inhibition of GCN5 acetyltransferase (GCN5) | Apoptosis, annexin V/7AAD double staining [1] | Concentration inhibiting cell proliferation ([1]; trypan-blue exclusion counts) | K24 and K43 acetylation of AML1-ETO (AML1-ETO fusion protein)
O=C(O)c1ccccc1O [salicylate, salicylic acid] | did not detectably inhibit | increased apoptosis | ≥ 1 mM | decreased in a dose-dependent manner
O=C(O)c1cc(-c2ccc(F)cc2F)ccc1O [diflunisal] | – | increased apoptosis in a dose-dependent manner | – | decreased in a dose-dependent manner
